{
  "source": "patent EP0429187A1",
  "about": "“Enhanced bioavailability adsorbates” (ELAN C[…].L.C., priority 1989, dated 1991)",
  "key": {"[1]": {"assay": "Comparison of enhanced bioavailability DHEA adsorbate with micronised DHEA: plasma levels (AUC) of DHEA base and sulphate", "type": "in vivo", "conditions": "reference AUC arbitrarily denoted as 100%, 500 mg oral every 8 hours over 24 hours, 9 healthy male human volunteers, read-out: F = absolute bioavailability (DHEA Base)", "procedure": "In this study an enhanced bioavailability DHEA adsorbate powder of the type prepared in Example 2 was compared with standard micronised DHEA in capsule form. For the formulation in accordance with the invention (hereinafter referred to as 'test') the dose administered was 500 mg of DHEA as adsorbate in powder-sachet form. The standard micronised DHEA (hereinafter referred to as 'reference') was administered as 2 x 250 mg capsules. […] In the study, the test substance was compared in a group of 9 healthy male human volunteers against the reference substance. The dosage regime was 500 mg every 8 hours over a 24 hour period. Plasma samples were taken in each case at intervals up to and including 24 hours post initial dosing and the samples were assayed for DHEA (base and sulphate) levels. DHEA sulphate levels were measured because a substantial portion of the DHEA is converted to the sulphate form in vivo. For the reference substance, the area under the curve (AUC) value are arbitrarily denoted as 100%. The AUC value was then compared and assigned an absolute bioavailability value (%) using the 100% as baseline."}, "[2]": {"assay": "Mean urinary recoveries for DHEA base in the comparison study", "type": "in vivo", "conditions": "human volunteers"}},
  "data": [
    {"smiles": "C[C@]12CC[C@H](O)CC1=CC[C@@H]1[C@@H]2CC[C@]2(C)C(=O)CC[C@@H]12", "note": "[REFERENCE, dehydroepiandrosterone]", "values": [
      {"measurement": "bioavailability", "setting": "[1]", "value": 100, "unit": "%"},
      {"measurement": "Mean Urinary Recoveries for DHEA Base", "setting": "[2]; Day 0", "value": "22.55 ± 8.50", "unit": "mg/24 h."},
      {"measurement": "Mean Urinary Recoveries for DHEA Base", "setting": "[2]; Day 1", "value": "460.67 ± 179.87", "unit": "mg/24 h."},
      {"measurement": "Mean Urinary Recoveries for DHEA Base", "setting": "[2]; Day 2", "value": "799.55 ± 191.90", "unit": "mg/24 h."},
      {"measurement": "Mean Urinary Recoveries for DHEA Base", "setting": "[2]; Day 3", "value": "745.88 ± 179.92", "unit": "mg/24 h."},
      {"measurement": "Mean Urinary Recoveries for DHEA Base", "setting": "[2]; Day 4", "value": "694.33 ± 162.07", "unit": "mg/24 h."},
      {"measurement": "Mean Urinary Recoveries for DHEA Base", "setting": "[2]; Day 5", "value": "800.22 ± 156.19", "unit": "mg/24 h."}
    ]}
  ]
}
